According to US20260217708A1, “FUSED BENZAZEPINE DERIVATIVES FOR USE IN THE TREATMENT OF CANCER AND EPILEPSY” (UCB BIOPHARMA SRL, priority 2023, published 2026):

How the values were obtained:
[1] = target: T1, system Xc^− (Homo sapiens, UniProt Q9UPY5); assay: Cystine-induced glutamate release assay; type: cell-based; parameters: endogenous in cells; host or cells: H4 cells; conditions: H4 cells, sodium-free HEPES buffer, 50 μM L-Cystine, 2 hours, Amplex Red glutamate readout; for IC50: read-out: pIC50 Cystine-induced glutamate release assay (converted)
T1 sequence (Q9UPY5 1-501): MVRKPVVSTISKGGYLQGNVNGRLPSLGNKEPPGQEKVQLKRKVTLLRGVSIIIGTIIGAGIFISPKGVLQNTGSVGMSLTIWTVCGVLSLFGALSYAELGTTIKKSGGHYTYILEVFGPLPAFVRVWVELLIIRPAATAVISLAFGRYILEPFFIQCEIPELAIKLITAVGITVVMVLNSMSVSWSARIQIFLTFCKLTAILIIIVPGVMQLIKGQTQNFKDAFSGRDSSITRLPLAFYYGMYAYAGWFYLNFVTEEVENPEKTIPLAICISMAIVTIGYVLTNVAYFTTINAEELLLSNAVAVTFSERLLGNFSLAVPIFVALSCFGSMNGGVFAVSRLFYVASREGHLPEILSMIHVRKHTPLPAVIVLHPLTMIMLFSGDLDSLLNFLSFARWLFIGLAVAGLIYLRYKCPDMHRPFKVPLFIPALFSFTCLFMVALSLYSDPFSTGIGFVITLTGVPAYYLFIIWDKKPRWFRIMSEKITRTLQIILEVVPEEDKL
T1 sequence (P08195 1-529 partner): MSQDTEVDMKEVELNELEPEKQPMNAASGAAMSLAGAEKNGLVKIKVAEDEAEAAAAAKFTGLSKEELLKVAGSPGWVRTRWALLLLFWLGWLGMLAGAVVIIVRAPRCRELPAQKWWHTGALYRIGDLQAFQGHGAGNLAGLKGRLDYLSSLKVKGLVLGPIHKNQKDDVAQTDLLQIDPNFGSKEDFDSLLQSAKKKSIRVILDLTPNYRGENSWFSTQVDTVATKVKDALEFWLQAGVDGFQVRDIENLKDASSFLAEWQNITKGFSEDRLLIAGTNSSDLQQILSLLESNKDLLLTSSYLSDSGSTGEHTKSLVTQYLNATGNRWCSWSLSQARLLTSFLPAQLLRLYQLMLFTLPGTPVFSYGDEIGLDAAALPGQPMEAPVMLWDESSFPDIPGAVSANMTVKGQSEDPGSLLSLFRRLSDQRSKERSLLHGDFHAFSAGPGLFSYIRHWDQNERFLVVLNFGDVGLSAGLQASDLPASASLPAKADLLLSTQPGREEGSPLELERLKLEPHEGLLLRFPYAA
From the text: (§1) The effect of compounds of Formula (I) on the system Xc^− functionality was examined in two independent cell assays: (i) measurement of cystine-induced glutamate release; and (ii) measurement of [^14C]L-Cystine uptake.
(§2) As described above, System Xc^−, also known as the cystine/glutamate antiporter, is an amino acid transporter that mediates the extrusion of intracellular L-glutamate outside the cell and the uptake of extracellular L-cystine into the cell.
(§3) By measuring respectively, the concentration of glutamate released outside the cell and the L-cystine uptaken in the cell, with increasing concentrations of compounds of formula (I) according to the present invention, the efficacy of said compounds to inhibit the System Xc^− function can be evaluated.
(§4) The efficacy of the compounds to inhibit system Xc^− is represented by measuring the IC50 which corresponds to the concentration of compound necessary to inhibit 50% of the signals from the two control groups; DMSO 1% and Erastin 50 μM in the respective assays. pIC50 values correspond to −log of the IC50 in Molar.
Measurement of cystine-induced glutamate release indicates levels of glutamate (outside of the cell) that are dependent on system Xc^− antiporter function. Upon the addition of L-Cystine to H4 cells, intracellular glutamate is counter-transported and exported in the supernatant.
In this assay, the medium is devoid of sodium to prevent the transport of glutamate by sodium-dependent excitatory amino acid transporters (EAATs). H4 cells were plated on 384-well culture plate at 1×10^4 cells/well in Dulbecco's Modified Eagle Medium (DMEM) with L-glutamine, penicillin/streptomycin and 10% fetal bovine serum (all from ThermoFisher Scientific) and incubated in a humidified CO2 incubator at 37° C. After 2 days, cells were washed 4 times with prewarmed sodium-free HEPES buffer (contents in mM: HEPES 10, KCl 5.4, CaCl2 2.5, MgCl2 1, KH2PO4 0.4, D-Glucose 5, Choline chloride 140), pH 7.4. Glutamate release was induced by addition of 50 μM of L-Cystine (Sigma-Aldrich), together with a test compound of Formula (I) at 1% final DMSO concentration. After 2 hours of incubation in the culture incubator, supernatants were transferred to a low-binding polypropylene 384-well plate to determine L-glutamate concentration using Amplex™ Red Glutamic Acid Assay Kit (ThermoFisher Scientific). Briefly, 10 μL of Amplex™ Red working solution was added to 10 μL of the supernatant, then the mixture was incubated for 30 min at 37° C. Fluorescence intensity was measured by EnVision microplate reader (PerkinElmer).

[2] = target: T1, system Xc^−; assay: [^14C]L-Cystine uptake assay; type: cell-based; parameters: endogenous in cells; host or cells: H4 cells; conditions: H4 cells, sodium-free HEPES buffer, 0.5 μM L-[14C]Cystine and 4.5 μM L-Cystine, 1 hour at 37° C.; for IC50: read-out: pIC50 [^14C] L-Cystine uptake assay (converted)
From the text: as §1, §2, §3, §4
In this assay, the medium is devoid of sodium to prevent the transport of glutamate by sodium-dependent excitatory amino acid transporters (EAATs). H4 cells were plated on a 96-well CytoStar-T scintillating microplate (PerkinElmer) at 5×10^4 cells/well in the medium described above. After 1 day, cells were washed one time with the sodium-free HEPES buffer and preincubated with test compounds of Formula (I) (1% final DMSO) for 15 min. Uptake was initiated by adding 0.5 μM L-[1,2, 1′,2′-^14C]Cystine (0.02 mCi/mL, PerkinElmer, Waltham, US) and 4.5 μM L-Cystine (Sigma-Aldrich). After 1 hour at 37° C., plates were counted in a MicroBeta^2 microplate counter (PerkinElmer).

SMILES	IC50 [1] [nM]	IC50 [2] [nM]	pIC50 Cystine-induced glutamate release assay [1]	pIC50 [^14C] L-Cystine uptake assay [2]
Cc1cc2c(c(F)n1)-c1cccnc1[C@@H](C)C(=O)N2CC(=O)Nc1ccc(C2CC2(F)F)cc1 (single isomer, unassigned) [#146]	39.8 to 100	100 to 501		
Cc1cc2c(c(C#N)n1)-c1cccnc1C(C)C(=O)N2CC(=O)Nc1ccc(Cl)c(F)c1 (single isomer, unassigned) [#155, N-(4-chloro-3-fluoro-phenyl)-2-[3-cyano-5,10-dimethyl-9-oxo-4,8,12-triazatricyclo[9.4.0.0^2,7]pentadeca-1(11),2(7),3,5,12,14-hexaen-8-yl]acetamide]	< 15.8	< 15.8		
Cc1cc2c(c(O)n1)-c1cccnc1C(C)C(=O)N2CC(=O)Nc1ccc(C(F)(F)F)cc1 (single isomer, unassigned) [#161, 2-(3-hydroxy-5,10-dimethyl-9-oxo-4,8,12-triazatricyclo[9.4.0.0^2,7]pentadeca-1(11),2(7),3,5,12,14-hexaen-8-yl)-N-[4-(trifluoromethyl)phenyl]acetamide]	15.8 to 39.8	15.8 to 39.8		
COCCOc1nc(C)cc2c1-c1cccnc1C(C)C(=O)N2CC(=O)Nc1ccc(C(F)(F)F)cc1 (single isomer, unassigned) [#162, 2-[3-(2-methoxyethoxy)-5,10-dimethyl-9-oxo-4,8,12-triazatricyclo[9.4.0.0^2,7]pentadeca-1(11),2(7),3,5,12,14-hexaen-8-yl]-N-[4-(trifluoromethyl)phenyl]acetamide]	15.8 to 39.8	15.8 to 39.8		
Cc1cc2c(c(=O)n1C)-c1ccc(F)cc1C(C)C(=O)N2CC(=O)Nc1ccc(Cl)c(F)c1 (single isomer, unassigned) [#174, N-(4-chloro-3-fluoro-phenyl)-2-(9-fluoro-2,3,7-trimethyl-1,6-dioxo-7H-pyrido[4,3-d][3]benzazepin-5-yl)acetamide]	< 15.8	< 15.8		
Cc1cc2c(c(=O)n1C)-c1ccccc1C(C)C(=O)N2CC(=O)Nc1ccc(C(F)F)cc1 (single isomer, unassigned) [#175, N-[4-(difluoromethyl)phenyl]-2-(2,3,7-trimethyl-1,6-dioxo-7H-pyrido[4,3-d][3]benzazepin-5-yl)acetamide]	< 15.8	< 15.8		
Cc1cc2c(c(Cl)n1)-c1ccccc1CC(=O)N2CC(=O)Nc1ccc(C(F)(F)F)cc1 (single isomer, unassigned) [#189, Atropisomer aR or aS of 2-(1-chloro-3-methyl-6-oxo-7H-pyrido[4,3-d][3]benzazepin-5-yl)-N-[4-(trifluoromethyl)phenyl]acetamide]			D (plC50 > about 7.80)	D (plC50 > about 7.80)

Now from value to compound, other results behind:

IC50 [1] [nM]	IC50 [2] [nM]	SMILES	pIC50 Cystine-induced glutamate release assay [1]	pIC50 [^14C] L-Cystine uptake assay [2]
< 15.8	< 15.8	CCn1c(C)cc2c(c1=O)-c1cccnc1[C@@H](C)C(=O)N2CC(=O)Nc1ccc(Cl)c(F)c1 (single isomer, unassigned) [#176, Enantiomer (10R) or (10S) of N-(4-chloro-3-fluoro-phenyl)-2-[4-ethyl-5,10-dimethyl-3,9-dioxo-4,8,12-triazatricyclo[9.4.0.0^2,7]pentadeca-1(15),2(7),5,11,13-pentaen-8-yl]acetamide]		
< 15.8	< 15.8	Cc1cc2c(c(=O)n1C)-c1cccnc1[C@@H](C)C(=O)N2CC(=O)Nc1ccc(C(F)F)cc1 (single isomer, unassigned) [#177, Enantiomer (10R) or (10S) of N-[4-(difluoromethyl)phenyl]-2-[4,5,10-trimethyl-3,9-dioxo-4,8,12-triazatricyclo[9.4.0.0^2,7]pentadeca-1(11),2(7),5,12,14-pentaen-8-yl]acetamide]		
< 15.8	< 15.8	Cc1cc2c(c(=O)n1C)-c1cccnc1[C@@H](C)C(=O)N2CC(=O)Nc1ccc(C(F)(F)F)cc1 (single isomer, unassigned) [#178, Enantiomer (10R) or (10S) of N-[4-(trifluoromethyl)phenyl]-2-[4,5,10-trimethyl-3,9-dioxo-4,8,12-triazatricyclo[9.4.0.0^2,7]pentadeca-1(15),2(7),5,11,13-pentaen-8-yl]acetamide]		
15.8 to 39.8	< 15.8	CC1C(=O)N(CC(=O)Nc2ccc(C(F)(F)F)cc2)c2cn(C)c(=O)c(F)c2-c2cccnc21 (single isomer, unassigned) [#184, enantiomer (10R) or (10S) of 2-(3-fluoro-5,10-dimethyl-4,9-dioxo-5,8,12-triazatricyclo[9.4.0.0^2,7]pentadeca-1(11),2,6,12,14-pentaen-8-yl)-N-[4-(trifluoromethyl)phenyl]acetamide]		
15.8 to 39.8	39.8 to 100	Cc1cc2c(cn1)-c1ccnn1C(C)C(=O)N2CC(=O)Nc1ccc(Cl)c(F)c1 (single isomer, unassigned) [#186, enantiomer (7S) or (7R) of N-(4-chloro-3-fluoro-phenyl)-2-[7,12-dimethyl-8-oxo-5,6,9,13-tetrazatricyclo[8.4.0.0^2,6]tetradeca-1(10),2,4,11,13-pentaen-9-yl]acetamide]		
39.8 to 100	15.8 to 39.8	CC1C(=O)N(CC(=O)Nc2ccc(C(F)(F)F)cc2)c2ccnc(F)c2-c2cccnc21 (single isomer, unassigned) [#187, enantiomer (10R) or (10S) of 2-[3-fluoro-10-methyl-9-oxo-4,8,12-triazatricyclo[9.4.0.0^2,7]pentadeca-1(11),2(7),3,5,12,14-hexaen-8-yl]-N-[4-(trifluoromethyl)phenyl]acetamide]		
< 15.8	< 15.8	Cc1cc2c(c(Cl)n1)-c1cccnc1C(F)C(=O)N2CC(=O)Nc1ccc(C(F)(F)F)cc1 (single isomer, unassigned) [#188, enantiomer (10R) or (10S) of 2-[3-chloro-10-fluoro-5-methyl-9-oxo-4,8,12-triazatricyclo[9.4.0.0^2,7]pentadeca-1(11),2(7),3,5,12,14-hexaen-8-yl]-N-[4-(trifluoromethyl)phenyl]acetamide]		
